Source: PMC2788660 (Journal of medicinal chemistry, 2009)
Square brackets hold non-standard residues; d marks the D form. Peptide text beside a SMILES is read from it. * marks the point of attachment. 1Nal = N[C@@H](Cc1cccc2ccccc12)C(=O)O; Asu = N[C@@H](CCCCCC(=O)O)C(=O)O; β3hL = CC(C)C[C@H](N)CC(=O)O; CH2CH2COOH = O=C(O)CC*

Experiments:
HDAC6 = target: T1, HDAC6 (Homo sapiens, UniProt Q9UBN7)
T1 sequence (Q9UBN7 1-1215): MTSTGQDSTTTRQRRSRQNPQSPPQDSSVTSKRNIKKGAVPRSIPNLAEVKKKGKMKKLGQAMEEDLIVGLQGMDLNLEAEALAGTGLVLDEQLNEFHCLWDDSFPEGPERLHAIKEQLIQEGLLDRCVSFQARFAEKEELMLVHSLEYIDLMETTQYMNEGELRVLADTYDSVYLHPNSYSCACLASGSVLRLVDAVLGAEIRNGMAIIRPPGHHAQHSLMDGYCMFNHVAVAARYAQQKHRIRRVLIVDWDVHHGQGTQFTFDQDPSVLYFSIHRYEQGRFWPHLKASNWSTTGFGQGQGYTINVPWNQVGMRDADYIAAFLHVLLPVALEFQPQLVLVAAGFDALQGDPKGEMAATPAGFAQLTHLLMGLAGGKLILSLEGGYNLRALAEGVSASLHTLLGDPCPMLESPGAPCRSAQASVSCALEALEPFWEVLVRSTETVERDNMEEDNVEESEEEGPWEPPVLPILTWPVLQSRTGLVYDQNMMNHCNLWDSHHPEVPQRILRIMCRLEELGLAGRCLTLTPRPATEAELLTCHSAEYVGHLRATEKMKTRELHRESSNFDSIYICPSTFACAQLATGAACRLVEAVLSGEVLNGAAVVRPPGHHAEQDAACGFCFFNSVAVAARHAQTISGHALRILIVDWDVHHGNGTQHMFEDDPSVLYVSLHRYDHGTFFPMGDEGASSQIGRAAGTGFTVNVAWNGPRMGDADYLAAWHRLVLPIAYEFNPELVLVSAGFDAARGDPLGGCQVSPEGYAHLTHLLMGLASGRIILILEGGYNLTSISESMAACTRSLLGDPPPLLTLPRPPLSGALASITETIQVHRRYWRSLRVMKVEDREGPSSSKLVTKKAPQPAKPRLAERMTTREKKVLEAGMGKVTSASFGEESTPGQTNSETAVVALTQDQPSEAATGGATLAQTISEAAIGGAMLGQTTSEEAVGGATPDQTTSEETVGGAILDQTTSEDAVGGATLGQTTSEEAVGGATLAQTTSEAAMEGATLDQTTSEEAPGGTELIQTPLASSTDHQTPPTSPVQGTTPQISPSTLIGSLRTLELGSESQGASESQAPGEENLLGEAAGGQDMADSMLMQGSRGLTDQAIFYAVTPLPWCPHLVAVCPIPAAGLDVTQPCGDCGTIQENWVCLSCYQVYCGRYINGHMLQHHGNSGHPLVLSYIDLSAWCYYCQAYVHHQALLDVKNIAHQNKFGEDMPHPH

HDAC1 = HDAC1 (Homo sapiens, UniProt Q13547); conditions: relative to 3a
HDAC1, sequence (Q13547 whole entry): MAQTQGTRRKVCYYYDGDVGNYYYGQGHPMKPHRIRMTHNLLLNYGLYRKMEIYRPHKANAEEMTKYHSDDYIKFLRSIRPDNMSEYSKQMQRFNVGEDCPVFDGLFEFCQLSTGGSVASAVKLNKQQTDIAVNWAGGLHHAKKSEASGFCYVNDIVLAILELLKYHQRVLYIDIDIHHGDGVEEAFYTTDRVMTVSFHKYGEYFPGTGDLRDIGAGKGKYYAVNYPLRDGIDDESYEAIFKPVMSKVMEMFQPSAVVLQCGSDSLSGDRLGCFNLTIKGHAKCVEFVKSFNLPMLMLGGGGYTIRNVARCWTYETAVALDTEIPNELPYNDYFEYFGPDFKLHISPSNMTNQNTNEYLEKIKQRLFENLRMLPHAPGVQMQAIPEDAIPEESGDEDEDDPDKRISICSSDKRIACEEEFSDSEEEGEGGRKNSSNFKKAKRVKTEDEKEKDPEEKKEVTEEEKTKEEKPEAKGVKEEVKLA

HDAC8 = target: T2, HDAC8 (Homo sapiens, UniProt Q9BY41); conditions: relative to 3a
T2 sequence (Q9BY41 1-377): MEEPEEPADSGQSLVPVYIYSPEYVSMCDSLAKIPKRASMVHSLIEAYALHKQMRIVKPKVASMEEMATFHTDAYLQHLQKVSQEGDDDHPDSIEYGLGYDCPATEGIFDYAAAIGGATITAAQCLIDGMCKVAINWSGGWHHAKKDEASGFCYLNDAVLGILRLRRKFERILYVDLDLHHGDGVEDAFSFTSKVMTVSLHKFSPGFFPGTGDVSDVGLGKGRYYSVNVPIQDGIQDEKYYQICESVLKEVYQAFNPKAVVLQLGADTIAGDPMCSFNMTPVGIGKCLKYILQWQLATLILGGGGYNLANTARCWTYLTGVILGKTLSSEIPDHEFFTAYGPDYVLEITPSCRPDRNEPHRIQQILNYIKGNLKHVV

For CC(C)C[C@H]1CC(=O)N[C@@H](CCCNC(=N)N)C(=O)N[C@@H](CCCCCC(=O)O)C(=O)N[C@@H](Cc2cccc3ccccc23)C(=O)N1 [compound 17, c[Asu-Nal-β^3Leu-Arg]] (cyclo([Asu][1Nal][β3hL]R); ring closure inferred), the “fold more potent against HDAC6 compared to Ala–aa4 analog (8b)” value (HDAC6) was 3–4 fold.

CCC(=O)CCCCC[C@@H]1NC(=O)[C@H]2CCCCN2C(=O)[C@H]([C@@H](C)CC)NC(=O)[C@H](Cc2cn(OC)c3ccccc23)NC1=O [1a, apicidin, reference compound] was tested, and the “HDAC6 inhibition (in words)” value (HDAC6) was “did not inhibit HDAC6 in the concentration range tested”.

In the case of CC(C)C[C@H]1CC(=O)N[C@@H](C)C(=O)N[C@@H](CSCCC(=O)O)C(=O)N[C@@H](Cc2c[nH]c3ccccc23)C(=O)N1 [4c] (cyclo(C(CH2CH2COOH)W[β3hL]A); ring closure inferred), the “decrease in potency against HDAC1, 3a vs. 4c” value (HDAC1) is reported as ~ 40 fold and the “decrease in potency against HDAC8, 3a vs. 4c” value (HDAC8) is reported as ~ 3 fold.
